Laboratory results from US20160106104A1, “SILICONE-BASED ANTIMICROBIAL COMPOSITION” (UNIVERSITE DU MAINE, priority 2013, published 2016).

Experiments:
Assay type in all cases: cell-based
[1] = tested on: Candida albicans IHEM 14796; assay: Tests on yeast according to ISO 22196; details: incubation 24 h
Method: The antibacterial activity of the silicone compositions of the invention was tested on the yeast line Candida albicans IHEM 14796, according to the procedure of the ISO 22196 standard (second edition, 2011).
(§1) The silicone films prepared in Example 5A were used.
The procedure followed is identical with that of Example 5A.

[2] = tested on: Enterobacter cloacae DSM 30054; assay: Antibacterial activity of silicone films, ISO 22196; details: incubation 24 h at 37° C., detection limit log10(N)=1.4
Method: (§2) The antibacterial activity of the silicone compositions of the invention was tested on 6 lines of bacteria, according to the procedure for the ISO 22196 standard (second edition, 2011).
(§3) The lines of tested bacteria are: Klebsiella pneumoniae DSM 16609, Staphylococcus aureus ATCC 25923, Enterococcus faecalis ATCC 29212, Escherichia coli ATCC 8739, Acinetobacter baumannii CIP 70.34 and Enterobacter cloacae DSM 30054.
(§4) Silicone films were prepared according to Examples 2 and 3, comprising 0%, 2% or 5% of antimicrobial agent PHMG-DBS, OMIM-BF4 or DMIM-BF4 (7 types of silicone films were therefore prepared).
(§5) Square pieces of silicone films with dimensions 25 mm×25 mm were cut out, as well as squares of polypropylene of dimension 20 mm×20 mm. The latter were passed in the autoclave at 115° C. for 20 minutes.
(§6) The bacteria were cultivated overnight at 37° C. in an agar culture medium. Suspensions of bacteria were then prepared in a nutrient broth culture medium with a bacterial concentration of 6.10^5 CFU/ml.
(§7) Each silicone square (not sterilized) was placed on a lid of a Petri dish with a diameter of 55 mm, which itself was placed in a Petri dish with a diameter of 94 mm. 100 μl of bacterial suspension were deposited on each silicone square and spread out by means of a polypropylene square. 10 ml of sterile water were added in the bottom of the Petri dish with a diameter of 94 mm in order to ensure high relative humidity during incubation at 37° C. for 24 hours. For each silicone film type, three specimens were made.
(§8) After incubation, each silicone film was placed in a new Petri dish and washed with 10 ml of […] (SCDLP, according to the standard procedure of the ISO standard) for recovering the bacteria. After 5 washes, the SCDLP suspension was diluted down to 10^−6, and 1 ml of obtained solution was placed on a gelose plate PCA (duplicated). Each plate was incubated at 37° C. for 24 hours. The number of colonies on each Petri dish was then counted.
(§9) The viability of the bacteria depending on the obtained results was calculated by means of the following formula: […]
(§10) wherein: • N refers to the number of viable bacteria observed per cm^2 of each tested sample, • C refers to the average count of colonies on each gelose plate PCA, and • D refers to the dilution factor used for the counting.
(§11) The results of the viability measurements of the bacteria, expressed in log10(N), are gathered in Table 1, the detection limit having been set to a number of recovered bacteria equal to 10 (i.e. log10(N)=1.4).

[3] = tested on: Enterococcus faecalis ATCC 29212; assay: as above; details: incubation 24 h at 37° C., detection limit log10(N)=1.4
Method: as §2, §3, §4, §5, §6, §7, §8, §9, §10, §11

[4] = tested on: Staphylococcus aureus ATCC 25923; assay: as above; details: incubation 24 h at 37° C., detection limit log10(N)=1.4
Method: as §2, §3, §4, §5, §6, §7, §8, §9, §10, §11

[5] = tested on: Klebsiella pneumoniae DSM 16609; assay: as above; details: incubation 24 h at 37° C., detection limit log10(N)=1.4
Method: as §2, §3, §4, §5, §6, §7, §8, §9, §10, §11

[6] = tested on: Escherichia coli ATCC 8739; assay: as above; details: incubation 24 h at 37° C., detection limit log10(N)=1.4
Method: as §2, §3, §4, §5, §6, §7, §8, §9, §10, §11

[7] = tested on: Acinetobacter baumannii CIP 70.34; assay: as above; details: incubation 24 h at 37° C., detection limit log10(N)=1.4
Method: as §2, §3, §4, §5, §6, §7, §8, §9, §10, §11

[8] = tested on: Penicillium chrysogenum HEM 20859; assay: Tests on a fungus according to ISO 16869 (modified); design: key: mark 0 is ascribed when no growth is observed; mark 1 is ascribed when beginning of growth is observed; mark 2 is ascribed when obvious growth is observed; details: silicone film with 5% antimicrobial agent, 25° C., naked eye mark
Method: The antifungal activity of the silicone compositions of the invention was tested on the fungus line Penicillium chrysogenum HEM 20859, according to the procedure of the ISO 16869 standard (second edition, 2008).
as §1
Thus, each silicone film sample was placed in a Petri dish between a lower layer of nutrient salt agar (20 ml) and an upper layer of Peptone Dextrose agar in which fungus spores were dispersed. The remainder of the procedure of the aforementioned standard was followed.
The culture media were incubated at 25° C. for at least 48 h, and for up to 7 days.
The results are evaluated with the naked eye: • mark 0 is ascribed when no growth is observed, • mark 1 is ascribed when beginning of growth is observed, and • mark 2 is ascribed when obvious growth is observed.

[9] = silicone film with 2% antimicrobial agent
[10] = silicone film with 5% antimicrobial agent

Structure (SMILES)	Viability of yeasts (log10(N)) Candida albicans [1, 9]	Viability of yeasts (log10(N)) Candida albicans [1, 10]	Viability of bacteria (log10(N)) Enterobacter cloacae [2, 9]	Viability of bacteria (log10(N)) Enterobacter cloacae [2, 10]	Viability of bacteria (log10(N)) Enterococcus faecalis [3, 9]	Viability of bacteria (log10(N)) Enterococcus faecalis [3, 10]	Viability of bacteria (log10(N)) Staphylococcus aureus [4, 9]	Viability of bacteria (log10(N)) Staphylococcus aureus [4, 10]	Viability of bacteria (log10(N)) Klebsiella pneumoniae [5, 9]	Viability of bacteria (log10(N)) Klebsiella pneumoniae [5, 10]	Viability of bacteria (log10(N)) Escherichia coli [6, 9]	Viability of bacteria (log10(N)) Escherichia coli [6, 10]	Viability of bacteria (log10(N)) Acinetobacter baumannii [7, 9]	Viability of bacteria (log10(N)) Acinetobacter baumannii [7, 10]	Observation of the growth of fungi Penicillium chrysogenum, Incubation for 48 h ([8]; 48 h)	Observation of the growth of fungi Penicillium chrysogenum, Incubation for 7 days ([8]; 7 days)
CCCCCCCCCCCCn1cc[n+](C)c1.F[B-](F)(F)F [DMIM-BF4, 1-dodecyl-3-methylimidazolium tetrafluoroborate]	1.4 log10(N)	1.4 log10(N)	1.4 log10(N)	1.4 log10(N)	1.4 log10(N)	1.4 log10(N)	1.4 log10(N)	1.4 log10(N)	1.4 log10(N)	1.4 log10(N)	1.4 log10(N)	1.4 log10(N)	1.6 log10(N)	1.4 log10(N)	0	0
CCCCCCCCn1cc[n+](C)c1.F[B-](F)(F)F [OMIM-BF4, 1-octyl-3-methylimidazolium tetrafluoroborate]	6.1 log10(N)	3.0 log10(N)	3.6 log10(N)	1.4 log10(N)	3.6 log10(N)	1.4 log10(N)	1.6 log10(N)	1.4 log10(N)	3.3 log10(N)	4.6 log10(N)	1.4 log10(N)	1.4 log10(N)	5.8 log10(N)	1.4 log10(N)	–	–
